For one test, the system named is BGLAP. The experiment in a line: BGLAP gene activation assay (BGLAP mRNA, QuantiGene 2.0) in MG-63 cells. Type of test: cell-based, human. The procedure: Human osteosarcoma cells MG-63, (CRL-1427, American Type Culture Collection (ATCC), Manassas, VA), were maintained in EMEM (ATCC 30–2003) + 10% FBS in 5% CO2. For bone gamma-carboxyglutamate protein (BGLAP) expression analysis MG-63 cells, suspended in EMEM (ATCC 30–2003) + 5% charcoal dextran treated FBS, were seeded onto 96-well tissue culture treated plates at 25,000 cells per well. After an overnight incubation the medium was removed and serial dilutions of VDRMs in concentrations ranging from 10 μM to 2 nM in EMEM (ATCC 30–2003) + 5% charcoal dextran treated FBS were added. Following a 24 h incubation the medium was removed and the plates were sealed and stored at −80 °C for later processing. QuantiGene 2.0 Assay Kit (Affymetrix QS0009) was used to quantitate BGLAP and the Housekeeping gene […] mRNA levels. Following the kit instructions, lysis buffer was added to the frozen cells and incubated briefly at 55 °C. A volume of 20 μl of BGLAP probeset (Affymetrix SA-10875-01) or 18 S (Affymetrix SA-10026) in blocking buffer was added to the provided capture plates before adding 80 μl of the cell lysate. The plates were sealed and incubated at 55 °C overnight. Following an overnight incubation the capture plates were washed and the probes amplified following kit instructions. The resulting luminescence signal was detected on an Envision (Perkin Elmer). BGLAP signal was normalized using the 18S signal and the resulting data was fit to a 4-parameter logistics to determine EC50.

The test system of a further test is TRPV6. The experiment in a line: TRPV6 gene activation assay (TRPV6 mRNA, QuantiGene 2.0) in differentiated C2BBe1 cells. Format: cell-based, human. The procedure: C2BBe1 (a clone of CaCO2) cells (CRL-2101, American Type Culture Collection, Manassas, VA) were maintained in DMEM (ATCC 30-2002) supplemented with 10% FBS and insulin-transferrin-selenium-G supplement (Invitrogen, Carlsbad, CA). For TRPV6 expression analysis, cells were plated in 96-well tissue culture treated plates (40,000 per well) in differentiation medium (DMEM containing 5% charcoal-stripped FBS and insulin-transferrin-sodium selenite supplement (ITS)). Cells were allowed to differentiate for 6 days with medium replacement every other day before compound treatment. The medium was removed, and serial dilutions of 1,25D3 or VDRMs in concentrations ranging from 10 μM to 2 nM in differentiation medium were added. After 24 h, the medium was removed, and cell plates were sealed and frozen at −80 °C until assayed. QuantiGene 2.0 Assay Kit (Affymetrix QS0009) was used to quantitate TRPV6 and housekeeping gene GUSB mRNA levels. Following the kit instructions, lysis buffer was added to the frozen cells and incubated briefly at 55 °C […]. Following an overnight incubation the capture plates were washed and the probes amplified following kit instructions. The resulting luminescence signal was detected on an Envision plate reader (Perkin Elmer). TRPV6 signal was normalized using the GUSB signal and the resulting data was fit to a 4-parameter logistic to determine EC50 values.

The target in a further test is T1, WT Flag-h RXRα (human, UniProt P19793 1-462).
T1 construct: human retinoid X receptor alpha (RXRα), full length; also called retinoid X receptor α; source: baculovirus system, purified (Flag, SEC)
T1 sequence (looked up): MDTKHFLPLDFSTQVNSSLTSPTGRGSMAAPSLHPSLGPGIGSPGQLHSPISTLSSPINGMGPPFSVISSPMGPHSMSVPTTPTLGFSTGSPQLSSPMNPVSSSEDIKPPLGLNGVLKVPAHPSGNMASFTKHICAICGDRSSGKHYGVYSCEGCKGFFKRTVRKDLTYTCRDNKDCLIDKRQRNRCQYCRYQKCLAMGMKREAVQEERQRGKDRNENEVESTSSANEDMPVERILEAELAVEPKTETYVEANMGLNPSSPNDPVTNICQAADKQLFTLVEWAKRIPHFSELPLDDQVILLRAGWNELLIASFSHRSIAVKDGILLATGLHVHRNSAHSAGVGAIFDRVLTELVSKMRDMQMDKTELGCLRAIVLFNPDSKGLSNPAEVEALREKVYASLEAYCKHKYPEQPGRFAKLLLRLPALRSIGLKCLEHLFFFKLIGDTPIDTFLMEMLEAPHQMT
The experiment in a line: native gel or EMSA; VDR and RXRα mixed at 1:1 molar ratio (about 10 μM); 6% DNA Retardation gel, 0.5X TBE, 150 V, room temperature; ethidium bromide and coomassie staining. Particulars: both partners purified. (In general: Mobility shift assays separate free from complexed probe on a gel.)

Take `C=C1/C(=C\C=C2/CCC[C@]3(C)[C@@H]([C@H](C)CCCC(C)(C)O)CC[C@@H]23)C[C@@H](O)C[C@@H]1O` [1,25D3, 1α,25-dihydroxyvitamin D3, reference compound]: the EC50 (as a rule, the concentration needed to bring the measured effect to its halfway point) was 4.1 nM in the test with BGLAP (Homo sapiens, MG-63, 24 h, read-out: EC50, BGLAP activation) and 9.81 nM with TRPV6 (Homo sapiens, C2BBe1 cells differentiated 6 days, 24 h, average of replicate runs). Besides, the “Max. Stim., BGLAP activation” value with BGLAP (MG-63 cells, fold change over DMSO normalized to 1,25D3 = 100%) is listed as 100%. Further, in the test with TRPV6 (C2BBe1 cells, fold change over DMSO normalized to 1,25D3 = 100%), the “Max. Stim., TRPV6 activation” value was 100%.

B1: Full-length WT His-hVDR (Δ (151–190)) (receptor, human, UniProt P11473 1-427, looked up)
chain: MEAMAASTSLPDPGDFDRNVPRICGVCGDRATGFHFNAMTCEGCKGFFRRSMKRKALFTCPFNGDCRITKDNRRHCQACRLKRCVDIGMMKEFILTDEEVQRKREMILKRKEEEALKDSLRPKLSEEQQRIIAILLDAHHKTYDPTYSDFITSSDMMDSSSFSNLDLSEEDSDDPSVTLELSQLSMLPHLADLVSYSIQKVIGFAKMIPGFRDLTSEDQIVLLKSSAIEVIMLRSNESFTMDDMSWTCGNQDYKYRVSDVTKAGHSLELIEPLIKFQVGLKKLNLHEEEHVLLMAICIVSPDRPGVQDAALIEAIQDRLSNTLQTYIRCRHPPPGSHLLYAKMIQKLADLRSLNEEHSKQYRCLSFQPECSMKLTPLVLEVFGNEIS
notes: human vitamin D receptor (VDR), full length with residues 151-190 deleted; also called vitamin D receptor; source: baculovirus system, purified (Ni-NTA, SEC)
For the molecule B1, the binding result in the test with WT Flag-h RXRα was “binds”.
